Measurements from PubChem BioAssay (NCI).
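Dose response: 5 concentrations. Exposure: 48 h. Format: 96-well plates. Endpoint: linear interpolation; highest concentration if not reached. At the GI50, growth is halved. TGI marks complete inhibition of growth.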

Legend:
Assay in all cases: NCI-60 cell line screen, 48 h
[1] = test system: HCC-2998 colon
[2] = test system: ACHN renal
[3] = test system: HL-60(TB) leukemia
[4] = test system: OVCAR-3 ovarian
[5] = test system: LOX IMVI melanoma
[6] = test system: NCI/ADR-RES ovarian
[7] = test system: SNB-19 CNS
[8] = test system: NCI-H226 lung
[9] = test system: COLO 205 colon
[10] = test system: BT-549 breast
[11] = test system: KM12 colon
[12] = test system: SW-620 colon
[13] = test system: OVCAR-4 ovarian
[14] = test system: UACC-257 melanoma
[15] = test system: SK-MEL-2 melanoma
[16] = test system: NCI-H460 lung
[17] = test system: MDA-MB-231 breast
[18] = test system: K-562 leukemia
[19] = test system: TK-10 renal
[20] = test system: 786-0 renal
[21] = test system: UACC-62 melanoma
[22] = test system: A498 renal
[23] = test system: MOLT-4 leukemia
[24] = test system: HCT-116 colon
[25] = test system: MCF7 breast
[26] = test system: SF-295 CNS
[27] = test system: CCRF-CEM leukemia

Question: What does the source list for `O=C(O)c1ccc2nc(-c3ccc(OCCCCCOc4ccc(-c5nc6ccc(C(=O)O)cc6[nH]5)cc4)cc3)[nH]c2c1`?
Answer: GI50 [1]: > 100 µM; TGI [1]: > 100 µM; GI50 [2]: > 100 µM; TGI [2]: > 100 µM; GI50 [3]: > 100 µM; TGI [3]: > 100 µM; GI50 [4]: > 100 µM; TGI [4]: > 100 µM; GI50 [5]: > 100 µM; TGI [5]: > 100 µM; GI50 [6]: > 100 µM; TGI [6]: > 100 µM; GI50 [7]: > 100 µM; TGI [7]: > 100 µM; GI50 [8]: > 100 µM; TGI [8]: > 100 µM; GI50 [9]: > 100 µM; TGI [9]: > 100 µM; GI50 [10]: > 100 µM; TGI [10]: > 100 µM; GI50 [11]: > 100 µM; TGI [11]: > 100 µM; GI50 [12]: > 100 µM; TGI [12]: > 100 µM; GI50 [13]: > 100 µM; TGI [13]: > 100 µM; GI50 [14]: > 100 µM; TGI [14]: > 100 µM; GI50 [15]: > 100 µM; TGI [15]: > 100 µM; GI50 [16]: > 100 µM; TGI [16]: > 100 µM; GI50 [17]: > 100 µM; TGI [17]: > 100 µM; GI50 [18]: 22.3 µM; TGI [18]: > 100 µM; GI50 [19]: > 100 µM; TGI [19]: > 100 µM; GI50 [20]: > 100 µM; TGI [20]: > 100 µM; GI50 [21]: > 100 µM; TGI [21]: > 100 µM; GI50 [22]: > 100 µM; TGI [22]: > 100 µM; GI50 [23]: 29.7 µM; TGI [23]: > 100 µM; GI50 [24]: > 100 µM; TGI [24]: > 100 µM; GI50 [25]: > 100 µM; TGI [25]: > 100 µM; GI50 [26]: > 100 µM; TGI [26]: > 100 µM; GI50 [27]: 18.8 µM
